# Laboratory results as given in patent publication US20210255193A1, “LYSINE REACTIVE PROBES AND USES THEREOF” (The Scripps Research Institute, priority 2017, published 2021).
# What was measured:
# Assay in all cases: competitive isoTOP-ABPP
# Assay type in all cases: binding
# [1] = biological target: T1, LRRC20 Leucine-rich repeat-containing protein 20 (Homo sapiens, UniProt Q8TCA0); conditions: for R value (DMSO/fragment) for probe 1 labeling: Q8TCA0_K43; for R value (DMSO/fragment) for probe 1 labeling / isoTOP-ABPP reactivity ratio at lysine Q8TCA0_K43 / isoTOP-ABPP ratio (R) at liganded lysine Q8TCA0_K43: 50 uM, in vitro; for R value (DMSO/fragment) for probe 1 labeling / isoTOP-ABPP reactivity ratio at lysine Q8TCA0_K43: 231 sol; for isoTOP-ABPP ratio (R) at liganded lysine Q8TCA0_K43: sol, 231
# T1 construct: isoTOP-ABPP experiments performed in cell lysates (in vitro); endogenous in cells; host or cells: soluble proteome of human cancer cell lines (MDA-MB-231; Ramos and Jurkat also prepared)
# T1 sequence (Q8TCA0 1-184): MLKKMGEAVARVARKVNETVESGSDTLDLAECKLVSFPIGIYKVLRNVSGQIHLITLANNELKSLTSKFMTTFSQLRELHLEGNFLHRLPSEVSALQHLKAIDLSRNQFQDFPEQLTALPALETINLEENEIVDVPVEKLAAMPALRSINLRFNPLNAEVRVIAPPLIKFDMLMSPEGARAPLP
# Method in brief: (§1)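 Probe: STP-alkyne, 0.1 mM, 1 h RT, after fragment pretreatment of lysate (esters 50 μM; guanidinylators 100 μM). Tags: light = compound, heavy = DMSO, via CuAAC. Replicates averaged if SD <60% of mean; otherwise lowest ratio used when any R <4.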
# [2] = biological target: T2, SPAST Spastin (Homo sapiens, UniProt Q9UBP0); conditions: for R value (DMSO/fragment) for probe 1 labeling: Q9UBP0_K180; for R value (DMSO/fragment) for probe 1 labeling / isoTOP-ABPP reactivity ratio at lysine Q9UBP0_K180 / isoTOP-ABPP ratio (R) at liganded lysine Q9UBP0_K180: 50 uM, in vitro; for R value (DMSO/fragment) for probe 1 labeling / isoTOP-ABPP reactivity ratio at lysine Q9UBP0_K180: 231 sol; for isoTOP-ABPP ratio (R) at liganded lysine Q9UBP0_K180: sol, 231
# T2 construct: endogenous in cells; host or cells: MDA-MB-231 lysate
# T2 sequence (Q9UBP0 1-616): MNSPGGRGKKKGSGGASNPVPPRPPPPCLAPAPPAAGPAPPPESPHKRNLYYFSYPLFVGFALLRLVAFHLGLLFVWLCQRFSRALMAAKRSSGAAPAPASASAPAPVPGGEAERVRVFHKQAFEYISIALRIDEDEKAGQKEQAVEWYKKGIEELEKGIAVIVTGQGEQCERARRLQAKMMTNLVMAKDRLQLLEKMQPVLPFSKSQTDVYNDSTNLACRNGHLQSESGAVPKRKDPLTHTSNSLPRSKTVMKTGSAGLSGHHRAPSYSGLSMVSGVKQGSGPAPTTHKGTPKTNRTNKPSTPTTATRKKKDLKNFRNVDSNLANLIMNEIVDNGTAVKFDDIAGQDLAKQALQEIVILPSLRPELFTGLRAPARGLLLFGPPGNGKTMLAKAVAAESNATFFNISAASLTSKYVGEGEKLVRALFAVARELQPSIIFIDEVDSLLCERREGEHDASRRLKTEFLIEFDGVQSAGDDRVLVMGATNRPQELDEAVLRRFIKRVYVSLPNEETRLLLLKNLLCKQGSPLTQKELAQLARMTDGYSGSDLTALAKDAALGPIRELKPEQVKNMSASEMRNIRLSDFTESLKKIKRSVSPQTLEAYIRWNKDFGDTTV
# Method in brief: as §1
# [3] = biological target: T3, SOD2 Superoxide dismutase (Homo sapiens, UniProt P04179); conditions: for isoTOP-ABPP ratio (R) at liganded lysine P04179_K68: sol, 231
# T3 construct: isoTOP-ABPP experiments performed in cell lysates (in vitro); endogenous in cells; host or cells: MDA-MB-231 soluble lysate
# T3 sequence (P04179 25-222): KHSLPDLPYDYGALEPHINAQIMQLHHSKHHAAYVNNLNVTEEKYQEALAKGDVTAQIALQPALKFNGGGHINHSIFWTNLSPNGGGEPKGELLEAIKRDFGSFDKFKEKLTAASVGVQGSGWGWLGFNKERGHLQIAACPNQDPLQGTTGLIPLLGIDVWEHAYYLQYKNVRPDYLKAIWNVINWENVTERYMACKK
# Method in brief: as §1
# [4] = biological target: T4, DTYMK Thymidylate kinase (Homo sapiens, UniProt P23919); conditions: for isoTOP-ABPP reactivity ratio at lysine P23919_K118: 231 sol; for isoTOP-ABPP ratio, lysine P23919_K118: 50 uM_231_sol_in vitro
# T4 construct: isoTOP-ABPP experiments performed in cell lysates (in vitro); endogenous in cells; host or cells: soluble proteome of human cancer cell lines (MDA-MB-231; Ramos and Jurkat also prepared)
# T4 sequence (P23919 1-212): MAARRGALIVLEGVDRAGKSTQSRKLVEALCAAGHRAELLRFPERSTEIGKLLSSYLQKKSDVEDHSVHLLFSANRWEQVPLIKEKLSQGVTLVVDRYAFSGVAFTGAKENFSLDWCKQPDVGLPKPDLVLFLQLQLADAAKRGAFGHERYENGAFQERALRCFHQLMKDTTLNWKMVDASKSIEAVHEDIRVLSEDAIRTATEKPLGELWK
# Method in brief: as §1
compound,measurement,setting,value
"O=C(CCc1cn(-c2ccccc2)nc1-c1ccccc1)Oc1c(F)c(F)c(F)c(F)c1F [fragment 19, Pentafluorophenyl 3-(1,3-diphenyl-1H-pyrazol-4-yl)propanoate]",R value (DMSO/fragment) for probe 1 labeling,[1],1.1
same,R value (DMSO/fragment) for probe 1 labeling,[2],1.3
"Cn1cc(CC(=O)Oc2c(F)c(F)c(F)c(F)c2F)c2ccccc21 [fragment 22, Pentafluorophenyl 2-(1-methyl-1H-indol-3-yl)acetate]",R value (DMSO/fragment) for probe 1 labeling,[1],0.9
same,R value (DMSO/fragment) for probe 1 labeling,[2],1.0
same,R value (DMSO/fragment) for probe 1 labeling,"[3]; P04179_K68, 50 uM, 231 sol, in vitro",1.0
"O=C(Oc1c(F)c(F)c(F)c(F)c1F)C1CCN(C(=O)OCc2ccccc2)CC1 [fragment 24, 1-Benzyl 4-(pentafluorophenyl) piperidine-1,4-dicarboxylate]",isoTOP-ABPP reactivity ratio at lysine Q9UBP0_K180,[2],1.1
same,isoTOP-ABPP reactivity ratio at lysine P23919_K118,"[4]; 50 uM, in vitro",1.1
"O=C(Oc1c(F)c(F)c(F)c(F)c1F)c1ccc2ccccc2n1 [fragment 25, Pentafluorophenyl quinoline-2-carboxylate]",isoTOP-ABPP reactivity ratio at lysine Q9UBP0_K180,[2],1.2
same,isoTOP-ABPP reactivity ratio at lysine P23919_K118,"[4]; 50 uM, in vitro",1.1
"O=C(CCc1coc2cc(F)ccc2c1=O)Oc1c(F)c(F)c(F)c(F)c1F [fragment 26, Pentafluorophenyl 3-(7-fluoro-4-oxo-4H-chromen-3-yl)propanoate]",isoTOP-ABPP reactivity ratio at lysine Q8TCA0_K43,[1],0.8
same,isoTOP-ABPP reactivity ratio at lysine P04179_K68,"[3]; 50 uM, 231 sol, in vitro",1.2
"O=C(CN1C(=O)c2ccccc2C1=O)Oc1c(F)c(F)c(F)c(F)c1F [fragment 27, Pentafluorophenyl 2-(1,3-dioxoisoindolin-2-yl)acetate]",isoTOP-ABPP reactivity ratio at lysine Q9UBP0_K180,[2],2.1
same,isoTOP-ABPP reactivity ratio at lysine P04179_K68,"[3]; 50 uM, 231 sol, in vitro",0.9
"CCn1cc(C(=O)Oc2c(F)c(F)c(F)c(F)c2F)c(=O)c2ccc(C)nc21 [fragment 28, Pentafluorophenyl 1-ethyl-7-methyl-4-oxo-1,4-dihydro-1,8-naphthyridine-3-carboxylate]",isoTOP-ABPP reactivity ratio at lysine Q9UBP0_K180,[2],1.0
same,isoTOP-ABPP reactivity ratio at lysine P23919_K118,"[4]; 50 uM, in vitro",0.9
same,isoTOP-ABPP reactivity ratio at lysine P04179_K68,"[3]; 50 uM, 231 sol, in vitro",0.8
"O=C(Oc1ccc([N+](=O)[O-])cc1[N+](=O)[O-])C(c1ccccc1)c1ccccc1 [fragment 30, 2,4-Dinitrophenyl 2,2-diphenylacetate]",isoTOP-ABPP reactivity ratio at lysine Q8TCA0_K43,[1],1.5
same,isoTOP-ABPP reactivity ratio at lysine P04179_K68,"[3]; 50 uM, 231 sol, in vitro",1.1
"O=C(Oc1ccc([N+](=O)[O-])cc1[N+](=O)[O-])c1cc(C(F)(F)F)cc(C(F)(F)F)c1 [fragment 31, 2,4-Dinitrophenyl 3,5-bis(trifluoromethyl)benzoate]",isoTOP-ABPP reactivity ratio at lysine Q9UBP0_K180,[2],1.1
same,isoTOP-ABPP reactivity ratio at lysine P04179_K68,"[3]; 50 uM, 231 sol, in vitro",1.5
"Cn1cc(CC(=O)Oc2ccc([N+](=O)[O-])cc2[N+](=O)[O-])c2ccccc21 [fragment 32, 2,4-Dinitrophenyl 2-(1-methyl-1H-indol-3-yl)acetate]",isoTOP-ABPP reactivity ratio at lysine Q8TCA0_K43,[1],1.6
same,isoTOP-ABPP reactivity ratio at lysine Q9UBP0_K180,[2],2.5
same,isoTOP-ABPP reactivity ratio at lysine P04179_K68,"[3]; 50 uM, 231 sol, in vitro",1.1
"COc1cc(CCC(=O)Oc2ccc([N+](=O)[O-])cc2[N+](=O)[O-])cc(OC)c1OC [fragment 33, 2,4-Dinitrophenyl 3-(3,4,5-trimethoxyphenyl)propanoate]",isoTOP-ABPP reactivity ratio at lysine Q9UBP0_K180,[2],0.7
same,isoTOP-ABPP reactivity ratio at lysine P23919_K118,"[4]; 50 uM, in vitro",6.6
"O=C(CCc1coc2cc(F)ccc2c1=O)Oc1ccc([N+](=O)[O-])cc1[N+](=O)[O-] [fragment 36, 2,4-Dinitrophenyl 3-(7-fluoro-4-oxo-4H-chromen-3-yl)propanoate]",isoTOP-ABPP ratio (R) at liganded lysine Q8TCA0_K43,[1],1.1
same,isoTOP-ABPP ratio (R) at liganded lysine P04179_K68,"[3]; 50 uM, in vitro",2.1
"O=C(Oc1ccc([N+](=O)[O-])cc1[N+](=O)[O-])c1ccc(-c2ccccc2)cc1 [fragment 37, 2,4-Dinitrophenyl [1,1′-biphenyl]-4-carboxylate]",isoTOP-ABPP ratio (R) at liganded lysine Q9UBP0_K180,[2],1.1
same,isoTOP-ABPP ratio (R) at liganded lysine P23919_K118,"[4]; 50 uM, in vitro, sol, 231",0.9
same,isoTOP-ABPP ratio (R) at liganded lysine P04179_K68,"[3]; 50 uM, in vitro",1.7
"O=C(CC12CC3CC(CC(C3)C1)C2)Oc1ccc([N+](=O)[O-])cc1[N+](=O)[O-] [fragment 38, 2,4-Dinitrophenyl 2-(adamantan-1-yl)acetate]",isoTOP-ABPP ratio (R) at liganded lysine Q9UBP0_K180,[2],2.1
"O=C(Oc1ccc([N+](=O)[O-])cc1[N+](=O)[O-])C(c1ccccc1)(c1ccccc1)c1ccccc1 [fragment 42, 2,4-Dinitrophenyl 2,2,2-triphenylacetate]",isoTOP-ABPP ratio (R) at liganded lysine Q8TCA0_K43,[1],1.3
same,isoTOP-ABPP ratio (R) at liganded lysine Q9UBP0_K180,[2],1.0
"CC(=O)Oc1ccc([N+](=O)[O-])cc1[N+](=O)[O-] [fragment 43, 2,4-Dinitrophenyl acetate]",isoTOP-ABPP ratio (R) at liganded lysine Q8TCA0_K43,[1],1.2
same,isoTOP-ABPP ratio (R) at liganded lysine Q9UBP0_K180,[2],2.7
same,isoTOP-ABPP ratio (R) at liganded lysine P04179_K68,"[3]; 50 uM, in vitro",1.4
"N#Cc1ccc(C(=O)Oc2ccc([N+](=O)[O-])cc2[N+](=O)[O-])cc1 [fragment 44, 2,4-Dinitrophenyl 4-cyanobenzoate]","isoTOP-ABPP ratio, lysine Q8TCA0_K43",[1]; 50 uM_231_sol_in vitro,1.1
same,"isoTOP-ABPP ratio, lysine P04179_K68",[3]; 50 uM_231_sol_in vitro,1.6
"O=C(CCc1ccc2c(c1)OCO2)Oc1ccc([N+](=O)[O-])cc1[N+](=O)[O-] [fragment 45, 2,4-Dinitrophenyl 3-(benzo[d][1,3]dioxol-5-yl)propanoate]","isoTOP-ABPP ratio, lysine Q8TCA0_K43",[1]; 50 uM_231_sol_in vitro,0.8
same,"isoTOP-ABPP ratio, lysine Q9UBP0_K180",[2]; 50 uM_231_sol_in vitro,1.7
same,"isoTOP-ABPP ratio, lysine P04179_K68",[3]; 50 uM_231_sol_in vitro,0.9
"O=C(ON1C(=O)CCC1=O)c1cc(C(F)(F)F)cc(C(F)(F)F)c1 [fragment 46, 3,5-Bis(trifluoromethyl)benzoic acid NHS ester]","isoTOP-ABPP ratio, lysine Q8TCA0_K43",[1]; 50 uM_231_sol_in vitro,1.3
same,"isoTOP-ABPP ratio, lysine Q9UBP0_K180",[2]; 50 uM_231_sol_in vitro,4.4
same,"isoTOP-ABPP ratio, lysine P04179_K68",[3]; 50 uM_231_sol_in vitro,0.9
"O=C(Oc1c(F)c(F)c(C(F)(F)F)c(F)c1F)c1cc(C(F)(F)F)cc(C(F)(F)F)c1 [fragment 47, 2,3,5,6-Tetrafluoro-4-(trifluoromethyl)phenyl 3,5-bis(trifluoromethyl)benzoate]","isoTOP-ABPP ratio, lysine P23919_K118",[4],0.9
"O=C(Oc1c(F)c(F)cc(F)c1F)c1cc(C(F)(F)F)cc(C(F)(F)F)c1 [fragment 48, 2,3,5,6-Tetrafluorophenyl 3,5-bis(trifluoromethyl)benzoate]","isoTOP-ABPP ratio, lysine P23919_K118",[4],0.6
"COC(=O)NC(=NC(=O)OCC1c2ccccc2-c2ccccc21)n1cccn1 [fragment 49, N-Methoxycarbonyl-N′-9-fluorenylmethoxycarbonyl-pyrazole-1-carboxamidine]","isoTOP-ABPP ratio, lysine Q8TCA0_K43",[1]; 100 uM_231_sol_in vitro,14.0
same,"isoTOP-ABPP ratio, lysine P04179_K68",[3]; 100 uM_231_sol_in vitro,3.3
"CC(C)(C)OC(=O)N=C(NC(=O)OC(C)(C)C)n1cccn1 [fragment 50, reference compound]","isoTOP-ABPP ratio, lysine Q8TCA0_K43",[1]; 100 uM_231_sol_in vitro,1.3
same,"isoTOP-ABPP ratio, lysine Q9UBP0_K180",[2]; 100 uM_231_sol_in vitro,2.0
"NC(=O)c1cc(C(F)(F)F)cc(C(F)(F)F)c1 [fragment 51, reference compound]","isoTOP-ABPP ratio, lysine P04179_K68",[3]; 50 uM_231_sol_in vitro,0.9
